PubChem BioAssay (NCI)
“And” between values parts separate entries of the source, which are not always exact repeats. Equal entries are not always repeated.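 These data come from cells grown in 96-well plates and exposed to compound for 48 hours at five concentrations. GI50: concentration for 50% inhibition of growth. The concentration for full growth arrest is given as TGI.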

The compounds below were run on OVCAR-5 ovarian (assay: NCI-60 cell line screen, 48 h).
Compound `C[C@]12CC[C@H](O)CC1=CC[C@@H]1[C@@H]2CC[C@]2(C)C(=N/N)/C(=N\O)C[C@@H]12` has a TGI of over 100 µM. For `CC(=O)Oc1cccc2c1C(=O)CCCC2`, the TGI was over 100 µM. For `CCN(CC)C(=S)N/N=C/c1cc([N+](=O)[O-])ccc1O`, the TGI was over 100 µM. For `Cc1ccc(NC(=O)c2ccc(OP(=O)(O)Nc3ccc(C)cc3)cc2)cc1`, the TGI was over 100 µM. With `Cc1ccnc(NS(=O)(=O)c2ccc(N=[N+]=[N-])cc2)n1` the TGI was over 100 µM. `Cc1ccccc1C(=N)c1ccccc1Cc1cccc2ccccc12` was tested, and the TGI was over 100 µM. Work on `CCC(=O)NC(Nc1cc(C)on1)(C(F)(F)F)C(F)(F)F` yielded a TGI of over 100 µM. Work on `COc1ccc(-c2[nH]c3c4c(nc5c(c24)C(=O)CC(C)(C)C5)CC(C)(C)C3)cc1` yielded a TGI of over 100 µM. For `Cc1ccccc1OC(C)C(=O)NN1C(=O)CSC1c1ccccc1` (stereo not drawn), the TGI was over 100 µM. `Cc1ccc(N(Cc2ccccc2)Cc2ccccc2)cc1` gave a TGI of over 100 µM. For `Nc1nc(-c2ccccc2)nc2oc(-c3cccs3)nc12`, the TGI was over 100 µM. In the case of `CC(C)=CCC[C@@H](C)c1c(O)c(O)c(C)c2nccnc12`, the TGI is reported as over 100 µM. Work on `O=c1[nH]c(=S)[nH]c2c1C(c1ccc([N+](=O)[O-])cc1)c1c([nH]c(=S)[nH]c1=O)O2` yielded a TGI of over 100 µM. `Cn1c(=O)c2c(nc3n2CC(C(=O)O)N3)n(C)c1=O` (stereo not drawn) gave a TGI of over 100 µM. For `Cc1ccc(-c2cc(-c3ccco3)c(C#N)c(=S)n2C2OC(CO)C(O)C(O)C2O)cc1` (stereo not drawn), the TGI was over 100 µM. For `Cc1oc2c(cc(O)c3cc(O)ccc32)c2cccc1-2`, the TGI was over 100 µM. Compound `NC(N)=Nc1ccc(CC(N)NCC(=O)O)cc1` (stereo not drawn) has a TGI of over 25 µM. `COC(=O)C1=C(C(=O)OC)SC(=C2SCSC3=C2SC(C(=O)OC)=C(C(=O)OC)C32SC3=C(CCCC3)S2)S1` showed a TGI of over 100 µM. `COc1nncc2[nH]c(-c3ccccc3)cc12` gave a TGI of over 100 µM. Compound `COc1ccc(-n2c(C)nc3ccc(NC(=S)Nc4ccccc4)cc3c2=O)cc1` has a TGI of over 100 µM. `O=S(=O)(c1ccccc1)c1cccc2c1NCCC2` gave a TGI of over 100 µM. With `COP(=O)(OC)C1=c2c(C)noc2=C2C=COC2C1=O` (stereo not drawn) the TGI was over 100 µM.

What follows are compounds tested on RXF 393 renal (assay: NCI-60 cell line screen, 48 h).
In the case of `CCOC(=O)c1c(CN2CCCC2)n(-c2ccccc2)c2cc(Br)c(O)cc12`, the TGI is reported as 25.6 µM. In the case of `O=C1c2cc3c(cc2-c2c1c1ccc(F)cc1c(=O)n2C[C@H](O)[C@@H](O)[C@H](O)CO)OCO3`, the GI50 is reported as 0.162 µM and the TGI is reported as 0.432 µM. Work on `Nn1c(Nc2ccc(S(=O)(=O)Nc3ncccn3)cc2)nnc(/C=C/c2c(O)ccc3ccccc23)c1=O` yielded a TGI of 80.3 µM. `Cc1cc(-c2nc3ccc(F)cc3s2)ccc1NC(=O)[C@H](C)N` gave a TGI of 21.7 µM. In the case of `Cc1cc(Nc2ccc(S(=O)(=O)O)c3cc(S(=O)(=O)O)cc(S(=O)(=O)O)c23)c2ccccc2n1`, the TGI is reported as over 100 µM. `NS(=O)(=O)c1nnc(NC(=O)Nc2ccc(Cl)c(Cl)c2)s1` showed a TGI of 35.3 µM. With `O=[N+]([O-])c1cc(C=NC23CC4CC(CC(C4)C2)C3)ccc1Cl` the TGI was 37.2 µM. Work on `CCCCCC1=CC(=O)C1(Cl)Cl` yielded a TGI of 35.3 µM. `CC(=O)N(C(=O)CC(=O)N1N=C(c2ccccc2)C(N=Nc2ccccc2[N+](=O)[O-])C1=O)c1ccc(Cl)cc1` (stereo not drawn) gave a TGI of over 10 µM. `Oc1ccccc1CNCc1nc2ccccc2[nH]1` showed a TGI of over 100 µM. `COc1ncc(/C=C2\OC(=O)c3ccccc32)c(OC)n1` showed a TGI of over 100 µM. `CC(=O)Nn1c(=S)[nH]c2ccccc21` showed a TGI of over 100 µM. `C[C@]12CCC3C4=C(CCC3C1CCC2=O)C(=O)[C@H]1O[C@H]1C4=O` (stereo partly drawn) gave a TGI of 3.18 µM. For `CCCCOC(=O)Nc1ccc(S(=O)(=O)Nc2ccccc2Cl)cc1`, the TGI was 55.9 µM. Compound `CC(C)c1cc2c(cc1S(=O)(=O)O)[C@@]1(C)CCC[C@@](C)(C(=O)O)C1CC2` (stereo partly drawn) has a TGI of over 100 µM. `N#CC(Cc1ccccc1)N(CCC1=CCCCC1)C(c1ccccc1)c1ccccc1` (stereo not drawn) was tested, and the TGI was over 100 µM. For `C/C(=C\CBr)CCC(Br)C(C)(C)Br` (stereo not drawn), the TGI was over 100 µM. In the case of `[N-]=[N+]=NC(c1ccccc1)(c1ccccc1)c1ccccc1`, the TGI is reported as 32.9 µM. Compound `CC(=O)c1c2c(c3ccccc3c1O)O[C@@H]1OCC[C@H]21` has a TGI of over 100 µM. `C(=C(c1ccc(OC2CCCCO2)cc1)c1ccc(OC2CCCCO2)cc1)c1ccccc1` (stereo not drawn) showed a TGI of 2.25 µM. Work on `C[C@]12CC[C@H](O)CC1=CC[C@@H]1[C@@H]2CC[C@]2(C)C(=N/N)/C(=N\O)C[C@@H]12` yielded a TGI of over 100 µM. `CC(=O)Oc1cccc2c1C(=O)CCCC2` was tested, and the TGI was over 100 µM. `CCN(CC)C(=S)N/N=C/c1cc([N+](=O)[O-])ccc1O` was tested, and the TGI was 51.3 µM. Work on `Cc1ccc(NC(=O)c2ccc(OP(=O)(O)Nc3ccc(C)cc3)cc2)cc1` yielded a TGI of over 100 µM. For `Cc1ccnc(NS(=O)(=O)c2ccc(N=[N+]=[N-])cc2)n1`, the TGI was over 100 µM. With `Cc1ccccc1C(=N)c1ccccc1Cc1cccc2ccccc12` the TGI was 20.3 µM. `CCC(=O)NC(Nc1cc(C)on1)(C(F)(F)F)C(F)(F)F` was tested, and the TGI was over 100 µM. With `COc1ccc(-c2[nH]c3c4c(nc5c(c24)C(=O)CC(C)(C)C5)CC(C)(C)C3)cc1` the TGI was over 100 µM. `CCC(=O)NCC1CCCN2CCCCC12` (stereo not drawn) was tested, and the TGI was over 100 µM. `Cc1ccccc1OC(C)C(=O)NN1C(=O)CSC1c1ccccc1` (stereo not drawn) was tested, and the TGI was over 100 µM. `Cc1ccc(N(Cc2ccccc2)Cc2ccccc2)cc1` was tested, and the TGI was over 100 µM. `Nc1nc(-c2ccccc2)nc2oc(-c3cccs3)nc12` showed a TGI of over 100 µM. `CC(C)=CCC[C@@H](C)c1c(O)c(O)c(C)c2nccnc12` showed a TGI of over 89.1 µM. `O=c1[nH]c(=S)[nH]c2c1C(c1ccc([N+](=O)[O-])cc1)c1c([nH]c(=S)[nH]c1=O)O2` was tested, and the TGI was over 100 µM. In the case of `Cn1c(=O)c2c(nc3n2CC(C(=O)O)N3)n(C)c1=O` (stereo not drawn), the TGI is reported as over 100 µM. In the case of `Cc1ccc(-c2cc(-c3ccco3)c(C#N)c(=S)n2C2OC(CO)C(O)C(O)C2O)cc1` (stereo not drawn), the TGI is reported as 45.4 µM and 45.3 µM. In the case of `Cc1oc2c(cc(O)c3cc(O)ccc32)c2cccc1-2`, the TGI is reported as over 100 µM. `NC(N)=Nc1ccc(CC(N)NCC(=O)O)cc1` (stereo not drawn) was tested, and the TGI was over 25 µM. `COC(=O)C1=C(C(=O)OC)SC(=C2SCSC3=C2SC(C(=O)OC)=C(C(=O)OC)C32SC3=C(CCCC3)S2)S1` was tested, and the TGI was 70 µM. Work on `COc1nncc2[nH]c(-c3ccccc3)cc12` yielded a TGI of over 100 µM. With `COc1ccc(-n2c(C)nc3ccc(NC(=S)Nc4ccccc4)cc3c2=O)cc1` the TGI was over 100 µM. Work on `O=S(=O)(c1ccccc1)c1cccc2c1NCCC2` yielded a TGI of 90.1 µM. `COP(=O)(OC)C1=c2c(C)noc2=C2C=COC2C1=O` (stereo not drawn) was tested, and the TGI was over 100 µM.

Each compound was assayed on UO-31 renal (assay: NCI-60 cell line screen, 48 h).
Work on `CCOC(=O)c1c(CN2CCCC2)n(-c2ccccc2)c2cc(Br)c(O)cc12` yielded a TGI of 24.5 µM. With `Nn1c(Nc2ccc(S(=O)(=O)Nc3ncccn3)cc2)nnc(/C=C/c2c(O)ccc3ccccc23)c1=O` the TGI was over 100 µM. For `Cc1cc(-c2nc3ccc(F)cc3s2)ccc1NC(=O)[C@H](C)N`, the TGI was 14 µM. Work on `Cc1cc(Nc2ccc(S(=O)(=O)O)c3cc(S(=O)(=O)O)cc(S(=O)(=O)O)c23)c2ccccc2n1` yielded a TGI of over 100 µM. `NS(=O)(=O)c1nnc(NC(=O)Nc2ccc(Cl)c(Cl)c2)s1` gave a TGI of 85.3 µM. `O=[N+]([O-])c1cc(C=NC23CC4CC(CC(C4)C2)C3)ccc1Cl` was tested, and the TGI was 15.8 µM. `CCCCCC1=CC(=O)C1(Cl)Cl` was tested, and the TGI was 38.2 µM. In the case of `CC(=O)N(C(=O)CC(=O)N1N=C(c2ccccc2)C(N=Nc2ccccc2[N+](=O)[O-])C1=O)c1ccc(Cl)cc1` (stereo not drawn), the TGI is reported as over 10 µM. With `Oc1ccccc1CNCc1nc2ccccc2[nH]1` the TGI was 49.1 µM. `COc1ncc(/C=C2\OC(=O)c3ccccc32)c(OC)n1` was tested, and the TGI was over 100 µM. `CC(=O)Nn1c(=S)[nH]c2ccccc21` showed a TGI of over 100 µM. `C[C@]12CCC3C4=C(CCC3C1CCC2=O)C(=O)[C@H]1O[C@H]1C4=O` (stereo partly drawn) gave a TGI of 5.1 µM. For `CCCCOC(=O)Nc1ccc(S(=O)(=O)Nc2ccccc2Cl)cc1`, the TGI was 80 µM. With `CC(C)c1cc2c(cc1S(=O)(=O)O)[C@@]1(C)CCC[C@@](C)(C(=O)O)C1CC2` (stereo partly drawn) the TGI was over 100 µM. Compound `N#CC(Cc1ccccc1)N(CCC1=CCCCC1)C(c1ccccc1)c1ccccc1` (stereo not drawn) has a TGI of over 100 µM. Compound `C/C(=C\CBr)CCC(Br)C(C)(C)Br` (stereo not drawn) has a TGI of over 100 µM. For `[N-]=[N+]=NC(c1ccccc1)(c1ccccc1)c1ccccc1`, the TGI was 30 µM. `CC(=O)c1c2c(c3ccccc3c1O)O[C@@H]1OCC[C@H]21` showed a TGI of over 100 µM. In the case of `C(=C(c1ccc(OC2CCCCO2)cc1)c1ccc(OC2CCCCO2)cc1)c1ccccc1` (stereo not drawn), the TGI is reported as 2.26 µM. Compound `C[C@]12CC[C@H](O)CC1=CC[C@@H]1[C@@H]2CC[C@]2(C)C(=N/N)/C(=N\O)C[C@@H]12` has a TGI of over 100 µM. In the case of `CC(=O)Oc1cccc2c1C(=O)CCCC2`, the TGI is reported as over 100 µM. Compound `CCN(CC)C(=S)N/N=C/c1cc([N+](=O)[O-])ccc1O` has a TGI of over 100 µM. `Cc1ccc(NC(=O)c2ccc(OP(=O)(O)Nc3ccc(C)cc3)cc2)cc1` was tested, and the TGI was over 100 µM. In the case of `Cc1ccnc(NS(=O)(=O)c2ccc(N=[N+]=[N-])cc2)n1`, the TGI is reported as over 100 µM. With `Cc1ccccc1C(=N)c1ccccc1Cc1cccc2ccccc12` the TGI was over 100 µM. Compound `CCC(=O)NC(Nc1cc(C)on1)(C(F)(F)F)C(F)(F)F` has a TGI of over 100 µM. In the case of `COc1ccc(-c2[nH]c3c4c(nc5c(c24)C(=O)CC(C)(C)C5)CC(C)(C)C3)cc1`, the TGI is reported as over 100 µM. `CCC(=O)NCC1CCCN2CCCCC12` (stereo not drawn) was tested, and the TGI was over 100 µM. `Cc1ccccc1OC(C)C(=O)NN1C(=O)CSC1c1ccccc1` (stereo not drawn) showed a TGI of over 100 µM. `Cc1ccc(N(Cc2ccccc2)Cc2ccccc2)cc1` showed a TGI of over 100 µM. For `Nc1nc(-c2ccccc2)nc2oc(-c3cccs3)nc12`, the TGI was over 100 µM. `CC(C)=CCC[C@@H](C)c1c(O)c(O)c(C)c2nccnc12` was tested, and the TGI was 45.9 µM. In the case of `O=c1[nH]c(=S)[nH]c2c1C(c1ccc([N+](=O)[O-])cc1)c1c([nH]c(=S)[nH]c1=O)O2`, the TGI is reported as over 100 µM. Compound `Cn1c(=O)c2c(nc3n2CC(C(=O)O)N3)n(C)c1=O` (stereo not drawn) has a TGI of over 100 µM. In the case of `Cc1ccc(-c2cc(-c3ccco3)c(C#N)c(=S)n2C2OC(CO)C(O)C(O)C2O)cc1` (stereo not drawn), the TGI is reported as 52 µM and > 100 µM. Compound `Cc1oc2c(cc(O)c3cc(O)ccc32)c2cccc1-2` has a TGI of over 100 µM. For `NC(N)=Nc1ccc(CC(N)NCC(=O)O)cc1` (stereo not drawn), the TGI was over 25 µM. `COC(=O)C1=C(C(=O)OC)SC(=C2SCSC3=C2SC(C(=O)OC)=C(C(=O)OC)C32SC3=C(CCCC3)S2)S1` was tested, and the TGI was over 100 µM. Work on `COc1nncc2[nH]c(-c3ccccc3)cc12` yielded a TGI of over 100 µM. For `COc1ccc(-n2c(C)nc3ccc(NC(=S)Nc4ccccc4)cc3c2=O)cc1`, the TGI was over 100 µM. For `O=S(=O)(c1ccccc1)c1cccc2c1NCCC2`, the TGI was over 100 µM. With `COP(=O)(OC)C1=c2c(C)noc2=C2C=COC2C1=O` (stereo not drawn) the TGI was over 100 µM.
